Experimental data published in US20250177386A1, “METHOD OF TREATMENT OF DEPRESSED PATIENTS WITH POOR COGNITION AND SELECTION OF OTHER PATIENTS BENEFITING FROM A BENZYLPIPERAZINE-AMINOPYRIDINE AGENT” (Alto Neuroscience, Inc., priority 2021, published 2025).

Experiments:
[1] = tested on: patients having major depressive disorder; assay: Phase 2 clinical trial with NSI-189 (220 patients, SPCD design), retrospective analysis by baseline cognition; format: in vivo, human; conditions: for number needed to treat to achieve one more remission / odds ratio for drug response: 80 mg vs placebo; for odds ratio for drug response: remission at 6 weeks
Experimental: A subsequent Phase 2 study was then performed on 220 patients with major depression (11). In that study, patients were randomized to receive a total daily dose of 40 mg or 80 mg of NSI-189 or placebo in stage 1 of the clinical trial design. […] Treatment in either stage was given for six weeks. This design is termed a Sequential Parallel Clinical Design (SPCD), and is analyzed statistically by combining results in a pre-defined manner for outcomes differences between relevant groups (e.g., drug vs. placebo) in each of the stages individually. There are two depression outcome measures accepted by the United States Food and Drug Administration (FDA) for the evaluation of adults. See the June 2018 FDA draft guidance entitled “Major Depressive Disorder: Developing Drugs for Treatment.” These are the Montgomery-Asberg Depression Rating Scale (MADRS), which was the primary outcome in this study, as well as the Hamilton Depression Rating Scale (HDRS) which was a key secondary outcome measure. […] It was reported that any benefits of NSI-189 on depression and cognition are independent effects (27).
A retrospective analysis of the 220-patient phase 2 study of NSI-189 discussed above was performed. In the study, patients having major depressive disorder were randomized to receive a total daily dose of 40 mg or 80 mg of NSI-189 or placebo in stage 1 (first 6 weeks) of the clinical trial design. […] The remaining of patients continued on their treatment for stage 2 of the trial. Treatment in either stage was given for six weeks. Patients were eligible for study participation if they were between the ages of 18-60 years, with current major depressive disorder of at least 8 weeks duration according to the DSM-5, as diagnosed by the Structured Clinical Interview for the DSM-5 clinical trial version (SCID-5-CT) during the screen and remote assessment visits, and if they were scored at least 20 at screen, remote assessment, and baseline visits on the Montgomery-Asberg Depression Rating Scale (MADRS). The phase 2 study collected cognitive task performance data prior to treatment, and then again after both stage 1 and stage 2 of the treatment protocol. The purpose of doing so was to determine whether treatment with this compound results in improvement in cognitive functioning, as measured by a variety of behavioral measures.
Prior to the inventor's retrospective analysis, there was no consideration as to using behavioral measures to predict treatment outcome nor was there any analysis conducted to this effect. There was no consideration of using cognitive performance as a predictor but only as an outcome measure. […] The tasks in this battery included a simple reaction time (RT) task, a choice RT task, a one-back working memory task, and a visual learning task. Moreover, given the conversion to z-score, a composite cognitive task performance score could be computed by averaging the z-scores for each of the four tasks in the battery. Analyses focused on the MADRS primary outcome of the study, with supporting evidence subsequently produced by examining the HDRS key secondary outcome, as well as the CGI. Statistical analyses focused first on the complete trial (incorporating both stage 1 and stage 2 outcomes), using the SPCD analytic approach reported in the original study and thus aligned could be compared with the original statistical analysis plan. We used linear mixed models to predict change from baseline (at 2, 4, and 6 weeks) in clinical scores and included covariates for time, time x group, time x baseline MADRS and baseline MADRS. These covariates likewise were used in the original study, and thus results here can be compared with the all-comer results reported previously. Statistical significance was thus assessed on the primary outcome (MADRS change from baseline at 6 weeks across the SPCD design) and similar secondary outcomes (HDRS and CGI change from baseline at 6 weeks). […]

[2] = tested on: patients having major depressive disorder; conditions: cited from earlier work
[3] = tested on: patients with major depression; conditions: total daily doses of 40 mg, 80 mg or 120 mg; 18 patients on active dose (ref. 10); cited from earlier work

In the case of `CC(C)CCNc1ncccc1C(=O)N1CCN(Cc2ccccc2)CC1` [NSI-189, (4-benzylpiperazin-1-yl)-[2-(3-methylbutylamino)pyridin-3-yl]methanone], the “change in MADRS scores, either drug arm versus placebo” value ([1]; 40 mg or 80 mg/day, good cognition group (composite score above patient mean), p=0.25) is reported as “no significant differences”, the “change in MADRS scores, 40 mg group versus placebo” value ([1]; 40 mg/day, poor cognition group (cognitive composite score), p=0.39) is reported as “not significant” and the “durability of MADRS benefit, poor cognition compared to good cognition patients” value ([1]; 80 mg arm from stage 1, composite score, 12 weeks of treatment) is reported as “stable and consistent throughout all 12 weeks of treatment”. For the same compound, the “number needed to treat to achieve one more remission” value ([1]; all-comer sample, 6 weeks, stage 1) was 19.6, the “odds ratio for drug response” value ([1]; all-comer sample, stage 1) was 1.3 and the “number needed to treat to achieve one more remission” value ([1]; poor cognition subpopulation, 6 weeks, stage 1) was 3.2. The “odds ratio for drug response” value ([1]; poor cognition subpopulation, stage 1) was 4.7, the “change in MADRS scores, 80 mg versus placebo” value (from here on “change … 80 mg versus placebo”) ([1]; 80 mg/day, choice RT task, lenient cutoff z=+0.5, p=0.12) was “did not yield a significant effect” and the “Cohen's d effect size per MADRS item, 80 mg versus placebo” value ([1]; 80 mg/day, cognitively impaired patients, six weeks, both stages, items 1, 7, 8, 9) was “notable effects”. The “remission rate (score of 10 or less on the MADRS)” value ([1]; 80 mg/day, good cognition patients, 6 weeks, stage 1, chi-square p=0.014 vs poor cognition) was 12%, the “MADRS depression score improvement, 80 mg over placebo” value ([1]; 80 mg/day, late-life depression (LLD) group, 50 years or older) was “greater with 80 mg over placebo” and the “MADRS depression score improvement, 80 mg versus placebo” value ([1]; 80 mg/day, non-LLD group, younger than 50) was “indistinguishable between the two arms”. The “symptom change on the HDRS, 80 mg relative to placebo” value ([1]; 80 mg/day, poor cognition based on choice RT task, p=0.008) was “robust and significant effect”, the “change … 80 mg versus placebo” value ([1]; 80 mg/day, poor cognition defined by choice RT task, SPCD p=0.005) was “robust and significant improvement over placebo” and the “Clinical Global Impression (CGI) severity, 80 mg over placebo” value ([1]; 80 mg/day, poor cognition defined by choice RT, p=0.0002) was “robust and significant advantage”. The “change … 80 mg versus placebo” value ([1]; 80 mg/day, poor cognition defined by one-back working memory, SPCD p=0.08) was “trend-level significance”, the “change … 80 mg versus placebo” value ([1]; 80 mg/day, poor cognition defined by simple RT task, SPCD p=0.09) was “trend-level significance” and the “change in MADRS scores, 80 mg arm versus placebo” value ([1]; 80 mg/day, poor cognition group (cognitive composite score below patient mean), SPCD analysis p=0.014, 6 weeks) was “robust and statistically significant effect”. For the same compound, the “change … 80 mg versus placebo” value ([1]; 80 mg/day, poor cognition on choice RT task, cutoff z=0, p=0.007) was “significant superiority over placebo”, the “change … 80 mg versus placebo” value ([1]; 80 mg/day, poor cognition on choice RT task, cutoff z=-0.5, p=0.009) was “significant superiority over placebo” and the “remission rate (score of 10 or less on the MADRS)” value ([1]; 80 mg/day, poor cognition patients (composite score), 6 weeks, stage 1, chi-square p=0.017 vs placebo) was 47%. For the same compound, the “Clinical Global Impression (CGI) severity, 80 mg versus placebo” value ([1]; 80 mg/day, poor cognition patients (composite score), p=0.002) was “significantly more effective than placebo”, the “symptom change on the HDRS, 80 mg over placebo” value ([1]; 80 mg/day, poor cognition patients (composite score), p=0.038) was “significantly greater efficacy” and the “benefit in terms of remission rate” value ([1]; good cognition group, 6 weeks, stage 1) was “No benefit”. The “MADRS depression score, difference between treatment arms” value ([1]; patients with poor self-reported cognition (CPFQ score >25)) was “no difference is seen between treatment arms”, the “Cohen's d effect sizes (MADRS, HDRS, CGI), 80 mg versus placebo” value ([1]; week 6, stage 1 and stage 2, poor cognition subpopulation relative to all-comer sample) was “effect sizes increase substantially” and the “effects on several secondary measures compared to placebo” value ([2]; 40 mg dose, all-comers, not corrected for multiple comparisons) was “nominally significant effects”. The “efficacy on any study measure” value ([2]; 80 mg daily dose, entire study population (ref. 11)) was “did not demonstrate efficacy”, the “antidepressant efficacy on MADRS primary outcome and HDRS key secondary measure” value ([2]; original all-comer analysis, 40 mg or 80 mg/day, full SPCD analysis or each stage alone (ref. 11)) was “failed to demonstrate any evidence of antidepressant efficacy” and the potential antidepressant efficacy [3] was “promising evidence”.
